According to patent US10654834B2 (Venenum Biodesign, LLC, priority 2016, dated 2020):

How the values were obtained:
mouse TGR5 receptor = target: T1, mouse TGR5 receptor (Mus musculus, UniProt Q80SS6); assay: Mouse TGR5 luminescent cAMP production assay (HEK293-EBNA cells, DiscoveRx cAMP XS+ kit); assay type: cell-based; details: HEK293-EBNA cells overexpressing mouse TGR5, luminescent cAMP assay; read-out: Mouse TGR5 Lum. cAMP Activity (EC50)
T1 construct: host or cells: HEK293-EBNA (293 c18, ATCC CRL10852)
T1 sequence (Q80SS6 1-329): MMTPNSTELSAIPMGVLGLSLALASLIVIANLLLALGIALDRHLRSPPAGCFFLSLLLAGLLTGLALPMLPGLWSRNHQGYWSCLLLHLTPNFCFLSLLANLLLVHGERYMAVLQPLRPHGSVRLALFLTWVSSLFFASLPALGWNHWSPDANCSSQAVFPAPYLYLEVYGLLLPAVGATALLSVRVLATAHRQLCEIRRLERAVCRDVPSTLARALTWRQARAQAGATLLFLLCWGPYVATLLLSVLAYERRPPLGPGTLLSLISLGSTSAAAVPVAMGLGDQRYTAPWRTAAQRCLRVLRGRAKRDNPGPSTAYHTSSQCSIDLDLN
Procedure: Mouse TGR5 cAMP Production Assay
Compounds of the present invention were evaluated for their ability to induce cAMP production in HEK-EBNA cells overexpressing the mouse TGR5 receptor. Human embryonic kidney cells (HEK293-EBNA) stably expressing mouse TGR5 receptor were established using the following procedure. Specifically, a commercially obtained gene encoding mouse TGR5 (accession number BC116914) from Thermo Scientific (Waltham, Mass.) was cloned into an episomal expression vector. The resulting expression plasmid was then transfected into 293 c18 (ATCC® CRL10852™) cells, which express the Epstein-Barr virus nuclear antigen EBNA1 and can support the replication of episomal vectors. Selection for the plasmid was maintained with Hygromycin B. Cells were cultured and maintained in DMEM (Sigma; cat #6429) supplemented with 10% Fetal Bovine Serum, 1% penicillin/streptomycin, 2 mM L-alanine L-glutamine (GlutaMax), and 250 μg/mL Hygromycin.
We developed two cAMP production assays.
(i) Luminescent cAMP Production Assay
In this first cAMP production assay, the cAMP production was measured using DiscoveRx's cAMP XS+ kit following the manufacturer's recommended protocol. Briefly, HEK293-EBNA cells stably overexpressing mouse TGR5 were harvested using non-enzymatic cell dissociation buffer (Sigma-Aldrich, St. Louis, Mo.), spun down, then resuspended in serum-free DMEM with 500 μM IBMX at a density of 1.25×10^6 cells/mL. 500 μL of cAMP antibody solution was added to 500 μL of cell suspension and incubated at room temperature for 20 min.
Test compounds were serially diluted (half-log dilutions) in DMSO and then further diluted 1:50 in PBS, 10 mM HEPES buffer. 2 μL of serially diluted compound was added to a 384-well low volume plate (Greiner cat #784075) and centrifuged briefly. 2 μl of the cell/cAMP antibody mixture was then added to each compound-containing well and allowed to incubate at room temperature for one (1) hour. Following incubation, the XS+ kits' ED/Lysis/CL Substrate Working Solution was prepared following the manufacturer's recommended protocol and 4 μL was added to each well of the plate. The plate was then incubated for one (1) hour at room temperature. Following incubation, 4 μL of (Enzyme Acceptor) EA reagent was added to the plate and allowed to incubate overnight at room temperature. Luminescent signal was then detected using the Viewlux instrument (PerkinElmer, Waltham, Mass.).
In Table 52, EC50 values for both human and mouse cells were determined according to the TGR5 cAMP assays described above. […]

human TGR5 receptor = target: T2, human TGR5 receptor (Homo sapiens, UniProt Q8TDU6); assay: Human TGR5 cAMP production assay (hTGR5-CHO cells, DiscoveRx cAMP XS+ kit); assay type: cell-based; details: luminescent cAMP assay, read-out: Human TGR5 Lum. cAMP Activity (EC50)
T2 construct: host or cells: CHO-K1 (hTGR5-CHO)
T2 sequence (Q8TDU6 1-330): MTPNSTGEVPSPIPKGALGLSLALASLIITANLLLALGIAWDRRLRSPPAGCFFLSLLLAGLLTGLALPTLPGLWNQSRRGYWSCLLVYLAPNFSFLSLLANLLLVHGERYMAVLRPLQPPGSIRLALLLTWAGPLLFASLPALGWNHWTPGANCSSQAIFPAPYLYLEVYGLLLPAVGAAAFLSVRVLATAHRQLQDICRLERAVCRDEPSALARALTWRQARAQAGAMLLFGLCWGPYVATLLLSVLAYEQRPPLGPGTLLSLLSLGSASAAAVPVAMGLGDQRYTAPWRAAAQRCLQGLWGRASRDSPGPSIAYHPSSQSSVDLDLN
How it was run: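 CHO-K1 cells stably expressing hTGR5, in PBS with IBMX and cAMP antibody, treated with half-log compound dilutions for 1 h at room temperature. cAMP measured by enzyme-fragment complementation luminescence after overnight detection; EC50 values reported.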

Row | Compound | EC50 (mouse TGR5 receptor) [nM] | EC50 (human TGR5 receptor) [nM]
1 | N#Cc1ccc(CCNC(=O)[C@@H]2CCCN2c2cc(-c3ccc(C(F)(F)F)cc3)nc(C(F)(F)F)n2)cc1 [Compound 147, (S)-N-(4-cyanophenethyl)-1-(2-(trifluoromethyl)-6-(4-(trifluoromethyl)phenyl)pyrimidin-4-yl)pyrrolidine-2-carboxamide] | 100 to 999 | 100 to 999
2 | CC(=O)NCC1CCN(c2cc(N3CCC[C@H]3C(=O)NCCc3ccc(C#N)cc3)nc(C(F)(F)F)n2)CC1 [Compound 52, (S)-1-(6-(4-(acetamidomethyl)piperidin-1-yl)-2-(trifluoromethyl)pyrimidin-4-yl)-N-(4-cyanophenethyl)pyrrolidine-2-carboxamide] | < 100 | 100 to 999
3 | COc1ccc(-c2cc(N3CCC[C@H]3C(=O)NCCc3ccc(C#N)cc3)nc(C(F)(F)F)n2)cc1OC [Compound 149, (S)-N-(4-cyanophenethyl)-1-(6-(3,4-dimethoxyphenyl)-2-(trifluoromethyl)pyrimidin-4-yl)pyrrolidine-2-carboxamide] | 100 to 999 | 100 to 999
4 | N[C@@H]1CC(C(=O)NCCc2ccc(C(F)(F)F)cc2)N(c2cc(N3CCC(CO)CC3)nc(C(F)(F)F)n2)C1 (stereo partly drawn) [Compound 218, (4R)-4-amino-1-(6-(4-(hydroxymethyl)piperidin-1-yl)-2-(trifluoromethyl)pyrimidin-4-yl)-N-(4-(trifluoromethyl)phenethyl)pyrrolidine-2-carboxamide] | 100 to 999 | 1000 to 30000
5 | COCC1CCN(c2cc(N3CCC[C@@H](C(=O)NCCc4ccc(C#N)cc4)C3)nc(C(F)(F)F)n2)CC1 [Compound 310, (R)-N-(4-cyanophenethyl)-1-(6-(4-(methoxymethyl)piperidin-1-y1)-2-(trifluoromethyl)pyrimidin-4-yl)piperidine-3-carboxamide] | 100 to 999 | < 100
6 | CC(C)(C)OC(=O)N1CCC(Oc2cc(N3CCC[C@H]3C(=O)NCCc3ccc(C#N)cc3)nc(C(F)(F)F)n2)CC1 [Compound 45, (S)-tert-butyl 4-((6-(2-((4-cyanophenethyl)carbamoyl)pyrrolidin-1-yl)-2-(trifluoromethyl)pyrimidin-4-yl)oxy)piperidine-1-carboxylate] | < 100 | 100 to 999
7 | CCCCCCc1ccc(-c2cc(N3CCC[C@H]3C(=O)NCCc3ccc(C#N)cc3)nc(C(F)(F)F)n2)s1 [Compound 139, (S)—N-(4-cyanophenethyl)-1-(6-(5-hexylthiophen-2-yl)-2-(trifluoromethyl)pyrimidin-4-yl)pyrrolidine-2-carboxamide] | 1000 to 30000 | 1000 to 30000
8 | O=C(NCCc1ccc(C(F)(F)F)cc1)[C@@H]1CCCN(c2cc(N3CCNCC3)nc(C(F)(F)F)n2)C1 [Compound 327, (R)-1-(6-(piperazin-1-yl)-2-(trifluoromethyl)pyrimidin-4-yl)-N-(4-(trifluoromethyl)phenethyl)piperidine-3-carboxamide] | 100 to 999 | 1000 to 30000
9 | N#Cc1ccc(CCNC(=O)[C@@H]2CCCN2c2cc(-c3ccncc3F)nc(C(F)(F)F)n2)cc1 [Compound 155, (S)-N-(4-cyanophenethyl)-1-(6-(3-fluoropyridin-4-yl)-2-(trifluoromethyl)pyrimidin-4-yl)pyrrolidine-2-carboxamide] | 100 to 999 | 100 to 999
10 | N#Cc1ccc(CCNC(=O)[C@@H]2CCN2c2cc(-c3ccc(CO)cc3)nc(C(F)(F)F)n2)cc1 [Compound 304, (S)-N-(4-cyanophenethyl)-1-(6-(4-(hydroxymethyl)phenyl)-2-(trifluoromethyl)pyrimidin-4-yl)azetidine-2-carboxamide] | 100 to 999 | 100 to 999
11 | N#Cc1ccc(CCNC(=O)[C@@H]2C[C@@H](O)CN2c2cc(N3CCC(CO)CC3)nc(C(F)(F)F)n2)cc1 [Compound 211, (2S,4R)-N-(4-cyanophenethyl)-4-hydroxy-1-(6-(4-(hydroxymethyl)piperidin-1-yl)-2-(trifluoromethyl)pyrimidin-4-yl)pyrrolidine-2-carboxamide] | 100 to 999 | 100 to 999
12 | O=C(NCCc1ccc(C(F)(F)F)cc1)[C@@H]1CCCN1c1cc(-c2ccccn2)nc(C(F)(F)F)n1 [Compound 163, (S)-1-(6-(pyridin-2-yl)-2-(trifluoromethyl)pyrimidin-4-yl)-N-(4-(trifluoromethyl)phenethyl)-pyrrolidine-2-carboxamide] | 1000 to 30000 | 100 to 999

More lines, now with the values ahead:

Row | EC50 (mouse TGR5 receptor) [nM] | EC50 (human TGR5 receptor) [nM] | Compound
13 | < 100 | 100 to 999 | CN(C)CC1CCN(c2cc(N3CC[C@H]3C(=O)NCCc3ccc(C#N)cc3)nc(C(F)(F)F)n2)CC1 [Compound 221, (S)-N-(4-cyanophenethyl)-1-(6-(4-((dimethylamino)methyl)piperidin-1-yl)-2-(trifluoromethyl)pyrimidin-4-yl)azetidine-2-carboxamide]
14 | 100 to 999 | 1000 to 30000 | O=C(NCCc1ccc(C(F)(F)F)cc1)[C@@H]1CCCN1c1cc(NCc2ccncc2)nc(C(F)(F)F)n1 [Compound 3]
15 | < 100 | 100 to 999 | N#Cc1ccc(CCNC(=O)[C@@H]2CCCN2c2cc(-c3ccc4[nH]ccc4c3)nc(C(F)(F)F)n2)cc1 [Compound 157, (S)-1-(6-(1H-indol-5-yl)-2-(trifluoromethyl)pyrimidin-4-yl)-N-(4-cyanophenethyl)pyrrolidine-2-carboxamide]
16 | < 100 | 100 to 999 | CC(C)(C)OC(=O)NC1CCN(c2cc(N3CCC[C@H]3C(=O)NCCc3ccc(C#N)cc3)nc(C(F)(F)F)n2)CC1 [Compound 16]
17 | < 100 | 100 to 999 | N#Cc1ccc(CCNC(=O)[C@@H]2CCCN2c2cc(-c3ccc(C#N)cc3)nc(C(F)(F)F)n2)cc1 [Compound 145, (S)-N-(4-cyanophenethyl)-1-(6-(4-cyanophenyl)-2-(trifluoromethyl)pyrimidin-4-yl)pyrrolidine-2-carboxamide]
18 | 100 to 999 | 100 to 999 | N#Cc1ccc(CCNC(=O)[C@@H]2CCCN2c2cc(-c3ccccn3)nc(C(F)(F)F)n2)cc1 [Compound 162, (S)-N-(4-cyanophenethyl)-1-(6-(pyridin-2-yl)-2-(trifluoromethyl)pyrimidin-4-yl)pyrrolidine-2-carboxamide]
19 | 100 to 999 | 100 to 999 | N#Cc1ccc(CCNC(=O)[C@@H]2CCCN2c2cc(-c3ccc(CN)cc3)nc(C(F)(F)F)n2)cc1 [Compound 185, (S)-1-(6-(4-(aminomethyl)phenyl)-2-(trifluoromethyl)pyrimidin-4-yl)-N-(4-cyanophenethyl)pyrrolidine-2-carboxamide]
20 | 100 to 999 | 1000 to 30000 | N#Cc1ccc(CCNC(=O)[C@@H]2CCCN2c2cc(-c3ccoc3)nc(C(F)(F)F)n2)cc1 [Compound 164, (S)-N-(4-cyanophenethyl)-1-(6-(furan-3-yl)-2-(trifluoromethyl)pyrimidin-4-yl)pyrrolidine-2-carboxamide]
21 | 100 to 999 | 100 to 999 | Cc1ccc(-c2cc(N3CCC[C@H]3C(=O)NCCc3ccc(C#N)cc3)nc(C(F)(F)F)n2)o1 [Compound 166, (S)-N-(4-cyanophenethyl)-1-(6-(5-methylfuran-2-yl)-2-(trifluoromethyl)pyrimidin-4-yl)pyrrolidine-2-carboxamide]
